One series deals with tumour cell line NB4. Kind of series: Chromatin condensation and nuclear fragmentation, hematoxylin-eosine and DAPI staining. The conditions noted are these: NB4, 24 h; S3 at 31.2 μg/mL. It is filed as cell-based, human. Here is the method:
Hematoxylin-eosine and DAPI (4′,6-diamidino-2-phenylindole, Sigma) stained cells were monitored under microscope to evaluated the type of cell death induced by the S3 fraction. In brief, cells treated with S3 fraction for 24 h at 37° C. under humidified atmosphere and 5% CO2, were plated onto microscope slides by cytocentrifugation (Vybra cytospin, Japan) for 5 min at 500 rpm, fixed with ethanol and stained with hematoxylin (2 min) and eosin (45 seconds). Excess dye was removed with ethanol (3 washes) and microscope slides were monitored and photographed under a light microscope (Olympus CH30, Japan) at a magnification of 100×. For DAPI staining, cells plated on glass cover slides (13 mm/-E) previously collagen-precoated (6-10 μg/cm2) at a density of 5×10^4 cells for 16 h, were treated with S3 fraction at 37° C. under humidified atmosphere and 5% CO2 for 24 h. Subsequently, cells were washed (PBS) and fixed with paraformaldehyde (2% in PBS) for 30 min at 4° C. After washing twice with PBS-BSA (1%), cells were incubated in cold acetone (1 min); washed (1% PBS-BSA) and incubated for 5 min with DAPI 300 nM (Sigma, St. Louis, Mo.). Slides with prolong antifade kit (Molecular Probes) were observed under a fluorescence microscope (Olympus, Japan).

Another series relates to tumor cell line A375. Put plainly: Cell cycle distribution, propidium iodide flow cytometry. It is filed as cell-based, human. The conditions noted are these: A375, F4 at 31.2 μg/mL; 18% in no treatment cells. Here is the method: After treatment, cells were washed and fixed with ethanol (ice-cold 70%) during 18 h. After fixing, cells were suspended in PBS 1×, 100 U/ml RNase, 50 μg/ml of propidium iodide (Sigma, St. Louis, Mo.) and incubated at room temperature for 30 min. Cell DNA content was measured by flow cytometry using a FACScalibur, (Becton Dickinson, Fullerton, Calif. For cytometric data 50,000 cellular events were collected per sample and analyzed with Cell Quest software (Becton Dickinson). Cell cycle distribution percentages are calculated by Modfit LT software. FACScalibur calibration is performed with the DNA QC Particle Kit (Becton Dickinson).
On the technique in general: In flow cytometry, cells or beads pass a laser one at a time.

The test system of series [1] is human peripheral blood mononuclear cells (PBMC). Put plainly: Growth of human mononuclear cells, MTT. It is filed as cell-based. The conditions noted are these: PBMC with or without phytohemagglutinin, 30 h, F4 250 to 1.9 μg/ml. Here is the method:
For assays in normal cells, human peripheral blood mononuclear cells (PBMC) from healthy volunteers were separated by density gradient centrifugation (Ficoll-Hypaque, Amersham, Biosciences). PBMC were suspended in RPMI-1640 supplemented medium (10% FBS, 2 mM L-glutamine, 100 U/ml penicillin, 100 μg/ml streptomycin, 0.01 M Hepes) and incubated under humidified environment at 37° C. and 5% CO2.
Human PBMC were seeded (2×10^5 cells/well) on 96-well plates and incubated with or without phytohemagglutinin (PHA, GibcoBRL) for 12 h. Afterwards, PBMC were treated with F4 fraction (250 to 1.9 μg/ml), or vincristine for 30 h. After treatment cells were centrifuged, F4 fraction removed and lastly cells were carefully washed 3 times (PBS) before adding the MTT. Next 12 μl of MTT 12 mM [3-(4,5-dimethylthiazol-2-yl)-2,5-diphenyl tetrazolium bromide] (Molecular Probes, Eugene, Oreg., USA) in PBS was added to each well and incubated for 4 h at 37° C. Formazan crystals were dissolved with SDS-HCl 0.01M. MTT results were read at 540 nm in a Multiskan MCC/340 (LabSystems).

Turning to `CN[C@@H]1C[C@H]2O[C@@](C)([C@@H]1OC)n1c3ccccc3c3c4c(c5c6ccccc6n2c5c31)C(=O)NC4` [staurosporine], the “type of cell death, hematoxylin-eosine staining” value in the series on tumour cell line NB4 is “nuclear fragmentation and DNA fragmentation”. Take `CC[C@]1(O)C[C@H]2CN(CCc3c([nH]c4ccccc34)[C@@](C(=O)OC)(c3cc4c(cc3OC)N(C=O)[C@H]3[C@@](O)(C(=O)OC)[C@H](OC(C)=O)[C@]5(CC)C=CCN6CC[C@]43[C@@H]65)C2)C1` [vincristine]: the G2 phase accumulation with tumor cell line A375 is recorded as ~80%. Besides, the “effect over growth of normal mononuclear cells” value in series [1] is given as “lack of effect”.

Source of the values: patent US8734863B2, “Bioactive fraction of Petiveria alliacea, pharmaceutical composition containing same, and combination with immunostimulants for treating cancer” (Pontificia Universidad Javeriana, priority 2009, dated 2014).
